Measured values: the NIST ThermoML archive (doi:10.1016/j.jct.2017.05.001)

Experiment: wn = mass fraction of the nth substance listed
Details: Liquid; for mass density: Vibrating tube method

OCCNCCO [diethanolamine] + O
mass density [kg/m3]
Details	w1 = 0.0993	w1 = 0.2	w1 = 0.3002	w1 = 0.3997
333.15 K, 130000 kPa	1041.7	1050.9	1060.6	1070.8
333.15 K, 140000 kPa	1045	1054.1	1063.7	1074
353.15 K, 100 kPa	981.9	992.4	1003	1013.9
353.15 K, 500 kPa	982	992.5	1003.1	1014
353.15 K, 1000 kPa	982.2	992.7	1003.4	1014.2
353.15 K, 2000 kPa	982.6	993.1	1003.7	1014.5
353.15 K, 5000 kPa	983.9	994.4	1005	1015.8
353.15 K, 10000 kPa	986.1	996.5	1007.1	1017.8
353.15 K, 15000 kPa	988.2	998.6	1009.1	1019.8
353.15 K, 20000 kPa	990.3	1000.6	1011.1	1021.8
353.15 K, 30000 kPa	994.4	1004.7	1015.1	1025.7
353.15 K, 40000 kPa	998.5	1008.5	1018.9	1029.4
353.15 K, 50000 kPa	1002.4	1012.4	1022.6	1033
353.15 K, 60000 kPa	1006.2	1016.3	1026.4	1036.7
353.15 K, 70000 kPa	1010	1019.8	1029.9	1040.2
353.15 K, 80000 kPa	1013.7	1023.4	1033.4	1043.6
353.15 K, 90000 kPa	1017.3	1026.9	1036.8	1047
353.15 K, 100000 kPa	1020.9	1030.4	1040.1	1050.4
353.15 K, 110000 kPa	1024.4	1033.8	1043.5	1053.6
353.15 K, 120000 kPa	1027.8	1037.1	1046.8	1056.8
353.15 K, 130000 kPa	1031.1	1040.5	1050	1060
353.15 K, 140000 kPa	1034.4	1043.6	1053.1	1063
373.15 K, 100 kPa	968.1	978.3	988.7	999.2
373.15 K, 500 kPa	968.3	978.6	988.9	999.4
373.15 K, 1000 kPa	968.6	978.8	989.2	999.6
373.15 K, 2000 kPa	969.1	979.3	989.6	1000.1
373.15 K, 5000 kPa	970.4	980.6	990.9	1001.4
373.15 K, 10000 kPa	972.7	982.8	993.2	1003.6
373.15 K, 15000 kPa	974.9	985	995.3	1005.7
373.15 K, 20000 kPa	977.1	987.2	997.4	1007.8
373.15 K, 30000 kPa	981.4	991.5	1001.6	1012
373.15 K, 40000 kPa	985.7	995.6	1005.7	1016
373.15 K, 50000 kPa	989.7	999.5	1009.5	1019.8
373.15 K, 60000 kPa	993.6	1003.5	1013.4	1023.6
373.15 K, 70000 kPa	997.5	1007.3	1017.2	1027.3
373.15 K, 80000 kPa	1001.4	1011.1	1020.9	1031
373.15 K, 90000 kPa	1005.1	1014.7	1024.4	1034.5
373.15 K, 100000 kPa	1008.8	1018.3	1028	1038
373.15 K, 110000 kPa	1012.4	1021.9	1031.5	1041.4
373.15 K, 120000 kPa	1015.9	1025.3	1034.9	1044.8
373.15 K, 130000 kPa	1019.4	1028.7	1038.2	1048.1
373.15 K, 140000 kPa	1022.7	1032	1041.5	1051.3
393.15 K, 100 kPa	952.6	962.8	972.9	983.2
393.15 K, 500 kPa	952.9	963.2	973.2	983.5
393.15 K, 1000 kPa	953.1	963.3	973.4	983.7
393.15 K, 2000 kPa	953.6	963.8	973.9	984.2
393.15 K, 5000 kPa	955.1	965.2	975.3	985.6
393.15 K, 10000 kPa	957.5	967.7	977.7	988
393.15 K, 15000 kPa	959.9	969.9	980	990.3
393.15 K, 20000 kPa	962.3	972.3	982.4	992.7
393.15 K, 30000 kPa	966.8	976.8	986.9	997.1
393.15 K, 40000 kPa	971.3	981.3	991.2	1001.4
393.15 K, 50000 kPa	975.4	985.4	995.3	1005.4
393.15 K, 60000 kPa	979.7	989.6	999.4	1009.6
393.15 K, 70000 kPa	984	993.8	1003.6	1013.6
393.15 K, 80000 kPa	987.9	997.6	1007.3	1017.3
393.15 K, 90000 kPa	991.7	1001.5	1011.2	1021.2
393.15 K, 100000 kPa	995.5	1005.2	1014.8	1024.8
393.15 K, 110000 kPa	999.4	1008.9	1018.5	1028.5
393.15 K, 120000 kPa	1003.1	1012.6	1022.1	1032
393.15 K, 130000 kPa	1006.6	1016.1	1025.5	1035.4
393.15 K, 140000 kPa	1010.1	1019.5	1029.1	1038.9

viscosity [mPa·s]
Details	w1 = 0.0993	w1 = 0.1	w1 = 0.2	w1 = 0.3	w1 = 0.3002	w1 = 0.3997	w1 = 0.4
353.15 K, 100 kPa, Concentric cylinders viscometry	–	0.474	0.627	0.866	–	–	1.244
353.15 K, 100 kPa, Falling or rolling sphere viscometry	0.4595	–	0.6088	–	0.8528	1.226	–
353.15 K, 5000 kPa, Falling or rolling sphere viscometry	0.4583	–	0.6083	–	0.8459	1.231	–
353.15 K, 10000 kPa, Falling or rolling sphere viscometry	0.4614	–	0.6136	–	0.8544	1.239	–
353.15 K, 15000 kPa, Falling or rolling sphere viscometry	0.4631	–	0.6167	–	0.8578	1.247	–
353.15 K, 20000 kPa, Falling or rolling sphere viscometry	0.464	–	0.6198	–	0.8642	1.255	–
353.15 K, 25000 kPa, Falling or rolling sphere viscometry	0.4671	–	0.6239	–	0.8704	1.264	–
353.15 K, 30000 kPa, Falling or rolling sphere viscometry	0.4692	–	0.6271	–	0.8768	1.275	–
353.15 K, 40000 kPa, Falling or rolling sphere viscometry	0.4733	–	0.6333	–	0.8887	1.292	–
353.15 K, 60000 kPa, Falling or rolling sphere viscometry	0.4815	–	0.646	–	0.9096	1.335	–
353.15 K, 80000 kPa, Falling or rolling sphere viscometry	0.4886	–	0.6588	–	0.9309	1.371	–
353.15 K, 100000 kPa, Falling or rolling sphere viscometry	0.4971	–	0.6731	–	0.9514	1.409	–
373.15 K, 5000 kPa, Falling or rolling sphere viscometry	0.3586	–	0.4622	–	0.6145	0.8545	–
373.15 K, 10000 kPa, Falling or rolling sphere viscometry	0.3611	–	0.4646	–	0.6194	0.863	–
373.15 K, 15000 kPa, Falling or rolling sphere viscometry	0.3635	–	0.467	–	0.6247	0.8727	–
373.15 K, 20000 kPa, Falling or rolling sphere viscometry	0.3652	–	0.4698	–	0.6304	0.8808	–
373.15 K, 25000 kPa, Falling or rolling sphere viscometry	0.3672	–	0.4729	–	0.6353	0.889	–
373.15 K, 30000 kPa, Falling or rolling sphere viscometry	0.3689	–	0.4761	–	0.6417	0.9	–
373.15 K, 40000 kPa, Falling or rolling sphere viscometry	0.3724	–	0.482	–	0.6515	0.9123	–
373.15 K, 60000 kPa, Falling or rolling sphere viscometry	0.3807	–	0.492	–	0.6676	0.9445	–
373.15 K, 80000 kPa, Falling or rolling sphere viscometry	0.3871	–	0.5046	–	0.6851	0.9763	–
373.15 K, 100000 kPa, Falling or rolling sphere viscometry	0.3943	–	0.5153	–	0.7019	1.003	–
393.15 K, 5000 kPa, Falling or rolling sphere viscometry	0.2926	–	0.3644	–	0.4675	0.6194	–
393.15 K, 10000 kPa, Falling or rolling sphere viscometry	0.2943	–	0.3676	–	0.4721	0.6265	–
393.15 K, 15000 kPa, Falling or rolling sphere viscometry	0.2964	–	0.37	–	0.4778	0.6495	–
393.15 K, 20000 kPa, Falling or rolling sphere viscometry	0.2989	–	0.3724	–	0.4809	0.6555	–
393.15 K, 25000 kPa, Falling or rolling sphere viscometry	0.301	–	0.3748	–	0.4848	0.6626	–
393.15 K, 30000 kPa, Falling or rolling sphere viscometry	0.3024	–	0.3769	–	0.4908	0.6682	–
393.15 K, 40000 kPa, Falling or rolling sphere viscometry	0.3047	–	0.3818	–	0.4967	0.681	–
393.15 K, 60000 kPa, Falling or rolling sphere viscometry	0.3113	–	0.3919	–	0.5122	0.7072	–
393.15 K, 80000 kPa, Falling or rolling sphere viscometry	0.3178	–	0.4017	–	0.527	0.7305	–
393.15 K, 100000 kPa, Falling or rolling sphere viscometry	0.3233	–	0.4114	–	0.5417	0.7538	–
